# Entries after “also recorded” stand apart in the source; their conditions may differ. Read-outs that look alike come from different tables or passages of the source.
# What was measured:
# [1] = Description: Angle of repose is measured as follows. Powder is poured from a funnel onto a flat surface until a cone of powder is created. The angle of repose is calculated according to the following equation: […]
# The height of the cone was estimated with calipers.
# [2] = remark: listed apart in the source
# Description: Four vials were prepared and stored at 2-8° C. or […] according to Table B2. The samples were scheduled initially to pull for testing at 3 weeks and 6 weeks time points.
# For appearance, each unopened vial was visually examined for color, clumping, and flowability.
# Based on the molecular weights, and expected UV response factors used in this study, the expected analytical sample concentrations were within the range of the 25HC3S sodium reference standards (0.75 mg/mL to 1.25 mg/mL as 25HC3S Sodium Salt).
# Samples were prepared by pipetting 20 mL of 100% methanol into each vial and mixing well, with sonication and vortexing to fully dissolve the samples for HPLC analysis.
# HPLC analysis was performed.
# [3] = Dynamic vapor sorption (DVS); type: physicochemical; conditions: for Hygroscopicity: in words, up to about 95% relative humidity
# Text: Dynamic vapor sorption data was collected on a Surface Measurement System DVS Intrinsic instrument. The samples were not dried prior to analysis. […] Data were not corrected for the initial moisture content of the sample.
# [4] = 5 mL cylinder, 300 taps
# Description: Although there are some variations in the method of determining the compressibility index and Hausner ratio, the basic procedure is to measure the unsettled apparent volume, VO, and the final tapped volume, Vf, of the powder after tapping the material until no further volume changes occur. The compressibility index and the Hausner ratio are calculated as follows: […]
# Powder was carefully poured into a 5 mL glass graduated cylinder (to contain) until it was close to or at 5.0 mL. This initial volume was recorded as Vo. The graduated cylinder was tapped on a hard surface for 200 times and the volume was recorded. The cylinder was tapped 100 times more, and the final volume Vf was recorded.
"Angle of Repose ([1]; about 2 g powder, cone of 21.14 mm diameter)",Angle of Repose Rounded Whole Number ([1]; rounded),Temperature stability [2],% Recovery of 2-8° C./3 wk vs 60° C./1 wk; 2-8° C./5 wk vs 80° C./5 wk ([2]; 3 wk),% Recovery of 2-8° C./3 wk vs 60° C./1 wk; 2-8° C./5 wk vs 80° C./5 wk ([2]; 5 wk),"X-ray powder diffraction pattern after DVS ([3]; before vs after DVS, FIG. 3)",Hygroscopicity [3],Compressibility Index [4],Hausner Ratio [4],Weight gain (water uptake) in DVS ([3]; from 5% up to about 95% relative humidity),Structure (SMILES),"Physical and chemical solid-state stability, comments [2]",Hygroscopicity ([3]; listed as crystalline 25HC3S choline)
34.9 degrees,35 degrees,good temperature stability,100.8%,97.3%,does not appreciably change,less hygroscopic,42,1.72,,"C[C@H](CCCC(C)(C)O)[C@H]1CC[C@H]2[C@@H]3CC=C4C[C@@H](OS(=O)(=O)[O-])CC[C@]4(C)[C@H]3CC[C@]12C.C[N+](C)(C)CCO [25HC3S choline, 25-Hydroxy-Cholest-5-En-3-Sulfate Choline]",Stable after 5 weeks at 80 °C physically and,not appreciably hygroscopic; also recorded: less hygroscopic
,,,,,,,,,significant water uptake,"C[C@H](CCCC(C)(C)O)[C@H]1CC[C@H]2[C@@H]3CC=C4C[C@@H](OS(=O)(=O)[O-])CC[C@]4(C)[C@H]3CC[C@]12C.[Na+] [crystalline 25HC3S sodium, reference compound]",,
